Results reported in paper PMC5218480 (PLoS ONE, 2017).

Test system: MV-4-11 cells
Assay: Gene expression microarray analysis (Affymetrix PrimeView) and GSEA
Type: cell-based, human
Design: RFU PODN (11730768_x_at) / Fold change /veh PODN (11730768_x_at) / RFU LINC00158 (11744669_a_at) / Fold change /veh LINC00158 (11744669_a_at) / RFU DUSP10 (11751237_a_at) / Fold change /veh DUSP10 (11751237_a_at) / RFU ID3 (11757404_x_at) / Fold change /veh ID3 (11757404_x_at) / RFU PLEKHG5 (11737974_s_at) / Fold change /veh PLEKHG5 (11737974_s_at) / RFU LRRC4B (11730491_at) / Fold change /veh LRRC4B (11730491_at) / RFU GIMAP4 (11747438_a_at) / Fold change /veh GIMAP4 (11747438_a_at) / RFU KRT8 (11758183_x_at) / Fold change /veh KRT8 (11758183_x_at) / RFU CNN1 (11734310_a_at) / Fold change /veh CNN1 (11734310_a_at) / RFU VPS37D (11726825_at) / Fold change /veh VPS37D (11726825_at) / RFU C10orf10 (11716522_x_at) / Fold change /veh C10orf10 (11716522_x_at) / RFU KIR2DL2 /// KIR2DL4 /// KIR2DL5A /// KIR2DL5B /// KIR2DS1 /// KIR2DS2 /// KIR2DS3 /// KIR2DS4 /// KIR3DL3 /// KIR3DL3 /// KIR3DS1 (11738374_at) / Fold change /veh KIR2DL2 /// KIR2DL4 /// KIR2DL5A /// KIR2DL5B /// KIR2DS1 /// KIR2DS2 /// KIR2DS3 /// KIR2DS4 /// KIR3DL3 /// KIR3DL3 /// KIR3DS1 (11738374_at) / RFU C1QL1 (11718748_at) / Fold change /veh C1QL1 (11718748_at) / RFU TMPRSS4 (11747572_a_at) / Fold change /veh TMPRSS4 (11747572_a_at) / RFU HAMP (11756126_x_at) / Fold change /veh HAMP (11756126_x_at) / RFU RNFT2 (11725882_a_at) / Fold change /veh RNFT2 (11725882_a_at) / RFU NR4A2 (11747474_a_at) / Fold change /veh NR4A2 (11747474_a_at) / RFU ABCC12 (11746883_a_at) / Fold change /veh ABCC12 (11746883_a_at) / RFU TMEM136 (11760407_x_at) / Fold change /veh TMEM136 (11760407_x_at) / RFU CLDN22 /// WWC2 (11732394_at) / Fold change /veh CLDN22 /// WWC2 (11732394_at) / RFU HLA-DPB1 (11760878_x_at) / Fold change /veh HLA-DPB1 (11760878_x_at) / RFU SPINT1 (11716480_a_at) / Fold change /veh SPINT1 (11716480_a_at) / RFU GAP43 (11754022_s_at) / Fold change /veh GAP43 (11754022_s_at) / RFU A4GNT (11735810_at) / Fold change /veh A4GNT (11735810_at) / RFU PRB3 (11715151_x_at) / Fold change /veh PRB3 (11715151_x_at) / RFU TUBB4B (11761932_at) / Fold change /veh TUBB4B (11761932_at) / RFU CAPN14 (11732068_a_at) / Fold change /veh CAPN14 (11732068_a_at) / RFU TMCC2 (11721928_a_at) / Fold change /veh TMCC2 (11721928_a_at) / RFU IRGQ (11745062_a_at) / Fold change /veh IRGQ (11745062_a_at) / RFU FAM174B (11720279_a_at) / Fold change /veh FAM174B (11720279_a_at) / RFU TMPRSS4 (11748680_a_at) / Fold change /veh TMPRSS4 (11748680_a_at) / RFU FAM212B (11763350_a_at) / Fold change /veh FAM212B (11763350_a_at) / RFU PLEKHG5 (11743358_a_at) / Fold change /veh PLEKHG5 (11743358_a_at) / RFU ZSCAN30 (11745921_a_at) / Fold change /veh ZSCAN30 (11745921_a_at) / RFU CMKLR1 (11741424_a_at) / Fold change /veh CMKLR1 (11741424_a_at) / RFU LOC101060620 /// MAPK8IP1 (11723275_at) / Fold change /veh LOC101060620 /// MAPK8IP1 (11723275_at) / RFU SPTSSB (11747773_x_at) / Fold change /veh SPTSSB (11747773_x_at) / RFU PRSS12 (11739890_at) / Fold change /veh PRSS12 (11739890_at) / RFU BIN1 (11741810_x_at) / Fold change /veh BIN1 (11741810_x_at) / RFU WNT11 (11732464_a_at) / Fold change /veh WNT11 (11732464_a_at) / RFU C10orf10 (11716521_a_at) / Fold change /veh C10orf10 (11716521_a_at) / RFU C5orf56 (11738089_at) / Fold change /veh C5orf56 (11738089_at) / RFU CYB561 (11721691_x_at) / Fold change /veh CYB561 (11721691_x_at) / RFU ANKRD19P (11752326_a_at) / Fold change /veh ANKRD19P (11752326_a_at) / RFU OR2T12 /// OR2T33 /// OR2T8 (11738714_s_at) / Fold change /veh OR2T12 /// OR2T33 /// OR2T8 (11738714_s_at) / RFU VCAN (11748164_a_at) / Fold change /veh VCAN (11748164_a_at) / RFU JSRP1 (11732532_at) / Fold change /veh JSRP1 (11732532_at) / RFU KRTAP10-11 (11738290_x_at) / Fold change /veh KRTAP10-11 (11738290_x_at) / RFU MYO3A (11730013_a_at) / Fold change /veh MYO3A (11730013_a_at) / RFU EBF3 (11725865_a_at) / Fold change /veh EBF3 (11725865_a_at) / RFU CAMK2N1 (11719241_x_at) / Fold change /veh CAMK2N1 (11719241_x_at) / RFU C5orf56 (11738088_a_at) / Fold change /veh C5orf56 (11738088_a_at) / RFU OLFML3 (11715873_a_at) / Fold change /veh OLFML3 (11715873_a_at) / RFU LOC100653217 /// NTM (11731650_a_at) / Fold change /veh LOC100653217 /// NTM (11731650_a_at) / RFU MAPK11 (11762145_a_at) / Fold change /veh MAPK11 (11762145_a_at) / RFU FIZ1 (11724087_x_at) / Fold change /veh FIZ1 (11724087_x_at) / RFU OASL (11726364_x_at) / Fold change /veh OASL (11726364_x_at) / RFU SOX15 (11748057_x_at) / Fold change /veh SOX15 (11748057_x_at) / RFU CD79A (11719716_a_at) / Fold change /veh CD79A (11719716_a_at) / RFU HIST1H1D (11736915_at) / Fold change /veh HIST1H1D (11736915_at) / RFU CASKIN2 (11723855_a_at) / Fold change /veh CASKIN2 (11723855_a_at) / RFU LOC730098 (11760151_x_at) / Fold change /veh LOC730098 (11760151_x_at) / RFU OR4N2 (11742367_at) / Fold change /veh OR4N2 (11742367_at) / RFU PRRT2 (11749266_a_at) / Fold change /veh PRRT2 (11749266_a_at) / RFU SNX32 (11753110_a_at) / Fold change /veh SNX32 (11753110_a_at) / RFU CDHR5 (11726645_a_at) / Fold change /veh CDHR5 (11726645_a_at) / RFU RCAN1 (11760418_a_at) / Fold change /veh RCAN1 (11760418_a_at) / RFU FAM167A (11723789_a_at) / Fold change /veh FAM167A (11723789_a_at) / RFU FAM26E (11764081_at) / Fold change /veh FAM26E (11764081_at) / RFU ISYNA1 (11749810_s_at) / Fold change /veh ISYNA1 (11749810_s_at) / RFU ACY1 (11761880_at) / Fold change /veh ACY1 (11761880_at) / RFU 11764098_at / Fold change /veh 11764098_at / RFU SAMD14 (11745864_x_at) / Fold change /veh SAMD14 (11745864_x_at) / RFU NPB (11741838_a_at) / Fold change /veh NPB (11741838_a_at) / RFU TMPRSS6 (11731388_a_at) / Fold change /veh TMPRSS6 (11731388_a_at) / RFU KRTAP10-2 (11738614_at) / Fold change /veh KRTAP10-2 (11738614_at) / RFU ARHGAP8 /// PRR5-ARHGAP8 (11727945_x_at) / Fold change /veh ARHGAP8 /// PRR5-ARHGAP8 (11727945_x_at) / RFU KRTAP5-7 /// NADSYN1 (11734609_at) / Fold change /veh KRTAP5-7 /// NADSYN1 (11734609_at) / RFU RASL12 (11751679_a_at) / Fold change /veh RASL12 (11751679_a_at) / RFU CDKN2B (11736163_a_at) / Fold change /veh CDKN2B (11736163_a_at) / RFU PRF1 (11729649_at) / Fold change /veh PRF1 (11729649_at) / RFU, ZNF638 /// ZNF638-IT1 / Fold change vs veh, ZNF638 /// ZNF638-IT1 / RFU, PANK3 / Fold change vs veh, PANK3 / RFU, SH3YL1 / Fold change vs veh, SH3YL1 / RFU, ZEB2 / Fold change vs veh, ZEB2 / RFU, NRIP1 / Fold change vs veh, NRIP1 / RFU, PTTG1IP / Fold change vs veh, PTTG1IP / RFU, CAPN2 / Fold change vs veh, CAPN2 / RFU, MED14 / Fold change vs veh, MED14 / RFU, SNORA58 / Fold change vs veh, SNORA58 / RFU, C1orf63 / Fold change vs veh, C1orf63 / RFU, LRRFIP1 / Fold change vs veh, LRRFIP1 / RFU, NDUFAF7 / Fold change vs veh, NDUFAF7 / RFU, SLC12A2 / Fold change vs veh, SLC12A2 / RFU, IBTK / Fold change vs veh, IBTK / RFU, ESF1 / Fold change vs veh, ESF1 / Fold change vs veh, TMEM50B / RFU, TAOK1 / Fold change vs veh, TAOK1 / RFU, ACBD3 / Fold change vs veh, ACBD3 / RFU, TMA16 / Fold change vs veh, TMA16 / RFU, RWDD3 / Fold change vs veh, RWDD3 / RFU, BCAT1 / Fold change vs veh, BCAT1 / RFU, EDEM3 / Fold change vs veh, EDEM3 / RFU, TMEM33 / Fold change vs veh, TMEM33 / RFU, WDR75 / Fold change vs veh, WDR75 / RFU, AHCTF1 / Fold change vs veh, AHCTF1 / RFU, TFRC / Fold change vs veh, TFRC / RFU, ZDHHC17 / Fold change vs veh, ZDHHC17 / RFU, NOM1 / Fold change vs veh, NOM1 / RFU, ARL8B / Fold change vs veh, ARL8B / RFU, ZBTB11 / Fold change vs veh, ZBTB11 / RFU, TAMM41 / Fold change vs veh, TAMM41 / RFU, KIAA1704 /// LOC100996395 / Fold change vs veh, KIAA1704 /// LOC100996395 / RFU, ING1 / Fold change vs veh, ING1 / RFU, TRMT61B / Fold change vs veh, TRMT61B / RFU, FUBP3 / Fold change vs veh, FUBP3 / RFU, TP53 / Fold change vs veh, TP53 / RFU, TNKS2 / Fold change vs veh, TNKS2 / RFU, ZFP14 / Fold change vs veh, ZFP14 / RFU, ACTR2 / Fold change vs veh, ACTR2 / RFU, PPP3R1 / Fold change vs veh, PPP3R1 / RFU, PIK3R1 / Fold change vs veh, PIK3R1 / RFU, HNRNPA1 / Fold change vs veh, HNRNPA1 / RFU, RNF170 / Fold change vs veh, RNF170 / RFU, ZNF28 / Fold change vs veh, ZNF28 / RFU, RNGTT / Fold change vs veh, RNGTT / RFU, OGT / Fold change vs veh, OGT / RFU, BRD1 / Fold change vs veh, BRD1 / RFU, MARS / Fold change vs veh, MARS / RFU, ZNF655 / Fold change vs veh, ZNF655 / RFU, FAHD1 / Fold change vs veh, FAHD1 / RFU, BDP1 / Fold change vs veh, BDP1 / RFU, LRRCC1 / Fold change vs veh, LRRCC1 / RFU, ARID1A / Fold change vs veh, ARID1A / RFU, ZNF146 / Fold change vs veh, ZNF146 / RFU, ZNF330 / Fold change vs veh, ZNF330 / RFU, GPN3 / Fold change vs veh, GPN3 / RFU, C9orf123 / Fold change vs veh, C9orf123 / RFU, N4BP2L2 / Fold change vs veh, N4BP2L2 / RFU, ARFIP1 / Fold change vs veh, ARFIP1 / RFU, FAM179B / Fold change vs veh, FAM179B / RFU, BCL10 / Fold change vs veh, BCL10 / RFU, UHRF1BP1L / Fold change vs veh, UHRF1BP1L / RFU, BET1 / Fold change vs veh, BET1 / RFU, CNOT2 / Fold change vs veh, CNOT2 / RFU, ZNF268 / Fold change vs veh, ZNF268 / Fold change vs veh, ZNF507 / RFU, DGCR2 / Fold change vs veh, DGCR2 / RFU, WDSUB1 / Fold change vs veh, WDSUB1 / Fold change vs veh, HSP90B1 /// MIR3652 / RFU, ADSS / Fold change vs veh, ADSS / RFU, GK / Fold change vs veh, GK / RFU, ZNF148 / Fold change vs veh, ZNF148 / RFU, TAF9 / Fold change vs veh, TAF9 / RFU, SLC1A5 / Fold change vs veh, SLC1A5 / RFU, SLMO2 / Fold change vs veh, SLMO2 / RFU, ABCC4 / Fold change vs veh, ABCC4 / RFU, LOC101060439 /// RAP1B / Fold change vs veh, LOC101060439 /// RAP1B / RFU, RFX7 / Fold change vs veh, RFX7 / RFU, GTPBP10 / Fold change vs veh, GTPBP10 / RFU, CNEP1R1 / Fold change vs veh, CNEP1R1 / RFU, BIVM-ERCC5 /// ERCC5 / Fold change vs veh, BIVM-ERCC5 /// ERCC5 / RFU, ILF3 / Fold change vs veh, ILF3 / RFU 11762660_at / Fold change /veh 11762660_at / RFU VCAN (11757783_s_at) / Fold change /veh VCAN (11757783_s_at) / RFU DDX43 (11728927_at) / Fold change /veh DDX43 (11728927_at) / RFU KRT8 (11758188_x_at) / Fold change /veh KRT8 (11758188_x_at) / RFU NKD1 (11759106_at) / Fold change /veh NKD1 (11759106_at) / RFU SRD5A1 (11742802_a_at) / Fold change /veh SRD5A1 (11742802_a_at) / RFU TPSAB1 /// TPSB2 (11721975_s_at) / Fold change /veh TPSAB1 /// TPSB2 (11721975_s_at) / RFU GSTM3 (11746129_a_at) / Fold change /veh GSTM3 (11746129_a_at) / RFU IL23R (11737362_x_at) / Fold change /veh IL23R (11737362_x_at) / RFU TMEM51 (11727254_a_at) / Fold change /veh TMEM51 (11727254_a_at) / RFU PIWIL2 (11732686_x_at) / Fold change /veh PIWIL2 (11732686_x_at) / RFU ORM1 (11744905_x_at) / Fold change /veh ORM1 (11744905_x_at) / RFU CCDC152 (11743942_at) / Fold change /veh CCDC152 (11743942_at) / RFU ECM1 (11717891_a_at) / Fold change /veh ECM1 (11717891_a_at) / RFU IL23R (11748794_a_at) / Fold change /veh IL23R (11748794_a_at) / RFU TNFAIP8L3 (11732012_x_at) / Fold change /veh TNFAIP8L3 (11732012_x_at) / RFU MBOAT4 (11741988_at) / Fold change /veh MBOAT4 (11741988_at) / RFU 11764193_at / Fold change /veh 11764193_at / RFU TMEM53 (11763286_at) / Fold change /veh TMEM53 (11763286_at) / RFU MAGEB2 (11727129_at) / Fold change /veh MAGEB2 (11727129_at) / RFU TMEM200A (11744735_a_at) / Fold change /veh TMEM200A (11744735_a_at) / RFU CCDC152 (11751479_a_at) / Fold change /veh CCDC152 (11751479_a_at) / RFU FAM211A (11726209_a_at) / Fold change /veh FAM211A (11726209_a_at) / RFU RGS16 (11746705_a_at) / Fold change /veh RGS16 (11746705_a_at) / RFU VCAN (11755009_s_at) / Fold change /veh VCAN (11755009_s_at) / RFU RHOB (11743442_s_at) / Fold change /veh RHOB (11743442_s_at) / RFU RGS16 (11720943_a_at) / Fold change /veh RGS16 (11720943_a_at) / RFU RGS16 (11720944_at) / Fold change /veh RGS16 (11720944_at) / RFU, VPS4B / Fold change vs veh, VPS4B / RFU, CREB1 / Fold change vs veh, CREB1 / RFU, DNAJC13 / Fold change vs veh, DNAJC13 / RFU, GNAQ / Fold change vs veh, GNAQ / RFU, CDK5R1 / Fold change vs veh, CDK5R1 / RFU, ZRANB3 / Fold change vs veh, ZRANB3 / RFU, CUL4A / Fold change vs veh, CUL4A / RFU, CCNY / Fold change vs veh, CCNY / RFU, UFL1 / Fold change vs veh, UFL1 / RFU, COG3 / Fold change vs veh, COG3 / RFU, DIAPH2 / Fold change vs veh, DIAPH2 / RFU, SKA2 / Fold change vs veh, SKA2 / RFU, AFF3 / Fold change vs veh, AFF3 / RFU, LMF1 / Fold change vs veh, LMF1 / RFU, IPO11 / Fold change vs veh, IPO11 / RFU, DFFB / Fold change vs veh, DFFB / RFU, FOXP1 / Fold change vs veh, FOXP1 / RFU, CARD8 / Fold change vs veh, CARD8 / RFU, STRN3 / Fold change vs veh, STRN3 / RFU, ADK / Fold change vs veh, ADK / RFU, RASSF2 / Fold change vs veh, RASSF2 / RFU, WIPF1 / Fold change vs veh, WIPF1 / RFU, LARP1B / Fold change vs veh, LARP1B / RFU, RASA1 / Fold change vs veh, RASA1 / RFU, RB1 / Fold change vs veh, RB1 / RFU, PPFIA1 / Fold change vs veh, PPFIA1 / RFU, MAT2A / Fold change vs veh, MAT2A / RFU, CCT5 / Fold change vs veh, CCT5 / RFU, WDR92 / Fold change vs veh, WDR92 / RFU, CUX1 / Fold change vs veh, CUX1 / RFU, TTC7A / Fold change vs veh, TTC7A / RFU, TMEM135 / Fold change vs veh, TMEM135 / RFU, DEPTOR / Fold change vs veh, DEPTOR / RFU, CPM / Fold change vs veh, CPM / RFU, DNAJB6 / Fold change vs veh, DNAJB6 / RFU, CACNA2D3 / Fold change vs veh, CACNA2D3 / RFU, DTX4 / Fold change vs veh, DTX4 / RFU, TFCP2 / Fold change vs veh, TFCP2 / RFU, GMCL1 /// GMCL1P1 / Fold change vs veh, GMCL1 /// GMCL1P1 / RFU, AEBP2 / Fold change vs veh, AEBP2 / RFU, SNHG1 /// SNORD22 /// SNORD25 /// SNORD26 /// SNORD27 /// SNORD28 /// SNORD29 /// SNORD31 / Fold change vs veh, SNHG1 /// SNORD22 /// SNORD25 /// SNORD26 /// SNORD27 /// SNORD28 /// SNORD29 /// SNORD31 / Fold change (Aza/veh), C12orf56 (ProbeSet 11735607_a_at) / Fold change (ACY-1035/veh), C12orf56 (ProbeSet 11735607_a_at) / Fold change (Aza/veh), FGFR1OP (ProbeSet 11751329_s_at) / Fold change (ACY-1035/veh), FGFR1OP (ProbeSet 11751329_s_at) / Fold change (Aza/veh), VPS36 (ProbeSet 11739960_a_at) / Fold change (ACY-1035/veh), VPS36 (ProbeSet 11739960_a_at) / RFU SYPL1 (11715823_x_at) / Fold change /veh SYPL1 (11715823_x_at) / RFU IGFBP7 (11715501_s_at) / Fold change /veh IGFBP7 (11715501_s_at) / RFU REEP3 (11722064_at) / Fold change /veh REEP3 (11722064_at) / RFU IGLL1 (11728026_x_at) / Fold change /veh IGLL1 (11728026_x_at): dose or concentration left out as unconfirmed
Details: MV-4-11 cells, 48 hours

## Nc1ccc(-c2cccs2)cc1NC(=O)c1ccc2c(c1)cc(C1CC1)n2CCN1CCOCC1 [ACY-1035]
  Fold change /veh PRRT2 (11749266_a_at): 1.00
